Patent publication US8796276B2, “Heterocyclic compounds for the treatment of neurological and psychological disorders” (Alkermes Pharma Ireland Limited, priority 2009, dated 2014)

Experiments:
[1] = test system: D-Amphetamine-induced locomotion; test: Pharmacodynamic study in amphetamine-induced locomotion model; details: D-AMPH 1.5 mg/kg IP
[2] = Pharmacokinetic evaluation of prodrugs in rats following intramuscular injection; format: in vivo, Male Sprague-Dawley rats; details: rat, IM injection, plasma drug concentration; dose (mg/kg) and excipients/formulation differ per table line
Experimental: Pharmakokinetic Evaluation of Prodrugs in Rats Following Intramuscular Injection
Male Sprague-Dawley rats (Charles River Laboratories, Wilmington, Mass.) were obtained. Approximately 24 rats were used in each study. Rats were approximately 350-375 g at time of arrival. Rats were housed 2 per cage with ad libitum chow and water. Environmental conditions in the housing room: 64-67° F., 30% to 70% relative humidity, and 12:12-h light:dark cycle. All experiments were approved by the institutional animal care and use committee.
Rats were dosed IM by means of a 25 gauge, ⅝ in. needle with 1 cc syringe 0.3 mL suspension was withdrawn from the vial containing the test compound (see Table E). The […] was injected in the muscles of the hind limb after anesthesia with isoflourane. Blood samples were collected via a lateral tail vein after brief anesthesia with Isoflurane. A 27½ G needle and 1 cc syringe without an anticoagulant was used for the blood collection. Approximately […] of whole blood was collected at each sampling time-point of 6 hours, 24 hours and 2, 5, 7, 9, 12, 14, 21, 28, 35 days after administration. Once collected, whole blood was immediately transferred to tubes containing K2 EDTA, inverted 10-15 times and immediately placed on ice. The tubes were centrifuged for 2 minutes at >14,000 g's (11500 RPMs using Eppendorf Centrifuge 5417C, F45-30-11 rotor) at room temperature to separate plasma. Plasma samples were transferred to labeled plain tubes (MICROTAINER®; MFG# BD5962) and stored frozen at <−70° C.
Drug concentrations in plasma samples were analyzed by liquid chromatography-mass spectroscopy using appropriate parameters for each compound. Half-life, volume of distribution, clearance, maximal concentration, and AUC were calculated by using WinNonlin Version 5.2 software.

[3] = PO oral oil solution, 0.66, 10 and 20 mg/rat
[4] = PO oral oil solution, at the higher dose of 20 mg

| Structure (SMILES) | inhibition of increases in distance traveled caused by D-AMPH [1, 4] | AUC0-T [2] [ng·days/mL] | further results |
| --- | --- | --- | --- |
| CCCCCC(=O)OCN1C(=O)CCc2ccc(OCCCCN3CCN(c4cccc(Cl)c4Cl)CC3)cc21 [Compound 4, (7-(4-(4-(2,3-dichlorophenyl)piperazin-1-yl)butoxy)-2-oxo-3,4-dihydroquinolin-1(2H)-yl)methyl hexanoate] | – | – | dose dependence of inhibition of distance travelled [1, 3]: did not appear to be dose dependent; inhibition of increases in distance traveled caused by D-AMPH [1, 3]: significantly inhibited |
| CCCCCCCCCCCC(=O)OCN1C(=O)CCc2ccc(OCCCCN3CCN(c4cccc(Cl)c4Cl)CC3)cc21 [Compound 7, (7-(4-(4-(2,3-dichlorophenyl)piperazin-1-yl)butoxy)-2-oxo-3,4-dihydroquinolin-1(2H)-yl)methyl dodecanoate] | significantly inhibit | – | – |
| CCCCCCCCCCCCCC(=O)OCN1C(=O)CCc2ccc(OCCCCN3CCN(c4cccc(Cl)c4Cl)CC3)cc21 [Compound 8, (7-(4-(4-(2,3-dichlorophenyl)piperazin-1-yl)butoxy)-2-oxo-3,4-dihydroquinolin-1(2H)-yl)methyl tetradecanoate] | – | 666.1 | AUC0-14 [2]: 580.3 ng·days/mL |
| CNC(=O)OCN1C(=O)CCc2ccc(OCCCCN3CCN(c4cccc(Cl)c4Cl)CC3)cc21 [Compound 47, (7-(4-(4-(2,3-dichlorophenyl)piperazin-1-yl)butoxy)-2-oxo-3,4-dihydroquinolin-1(2H)-yl)methyl methylcarbamate] | significantly inhibit | – | – |
| CCOC(=O)OCN1C(=O)CCc2ccc(OCCCCN3CCN(c4cccc(Cl)c4Cl)CC3)cc21 [Compound 79, (7-(4-(4-(2,3-dichlorophenyl)piperazin-1-yl)butoxy)-2-oxo-3,4-dihydroquinolin-1(2H)-yl)methyl ethyl carbonate] | – | 940 | – |
